Reference: patent US20140093513A1, “METHODS OF LOWERING PROPROTEIN CONVERSATE SUBTILISIN/KEXIN TYPE 9 (PCSK9)” (Catabasis Pharmaceuticals, Inc., priority 2012, published 2014)

Test system: PCSK9
Assay: PCSK9 secretion assay in HepG2 cells (PCSK9 ELISA)
Format: cell-based
Conditions: HepG2 cells; for IC50: 16 hours incubation, at least 6 concentrations
Procedure: HepG2 cells (from ATCC, Catalog no. HB-8065) were maintained in DMEM (Invitrogen) supplemented with 10% fetal bovine serum (Invitrogen). The day prior to the PCSK9 assay, cells are seeded in 96-well collagen coated plates at 25,000 cells/well.
The compounds of the invention were stored at −20° C. until used. The test article compound was dissolved in 100% ethanol to a 50 mM stock solution. This was then diluted in FBS to a final concentration of 1 mM. This solution was placed in a sonicating water bath for 30 minutes. Subsequent dilutions were then made in FBS supplemented with an equivalent volume of ethanol and mixed by vortexing.
HepG2 cells were seeded onto a collagen coated 96-well plate (Becton Dickinson, Catalog no. 35-4407) the day prior to the assay, as described above. The next day, the cell medium was removed, washed once with 100 μL serum free DMEM to remove any residual PCSK9, and replaced with 90 μL of serum free DMEM. Ten microliters of each compound concentration prepared in FBS was then added. Each concentration of compound was tested in triplicate. The compound was incubated with the cells overnight for 16 hours. Following this incubation, 10 μL of AlamarBlue was added to each well and cells incubated for another 2 hours. The plates were then removed and AlamarBlue fluorescence was measured (excitation, 550 nm and […]) to assess cell viability. Cell culture supernatant was then diluted […] 1×RDSP Calibrator Diluent and PCSK9 ELISA was then performed with 50 μL of this diluted sample, as per the manufacturer's instructions. The ELISA was measured on a Victor X5 multilabel plate reader (PerkinElmer) at an absorbance of 450 nm with background correction measured at 550 nm (The PCSK9 Elisa kits can be purchased from R&D System, Catalog no. DPC900).
Alternatively, an IC50 could also be obtained when this type of assay was carried out using at least 6 different concentrations of the test compounds. Table 1 lists the IC50 values for the compounds tested in this assay.

IC50	SMILES	lowering of PCSK9 (at 25 and 50 μM, FIG. 1)
25 to 50 µM	CC/C=C\C/C=C\C/C=C\C/C=C\C/C=C\CCCC(=O)NCCNC(=O)CNC(=O)c1cccnc1 [Compound I-30, N-(2-((2-((5Z,8Z,11Z,14Z,17Z)-icosa-5,8,11,14,17-pentaenamido)ethyl)amino)-2-oxoethyl)nicotinamide]	
< 25 µM	CC/C=C\C/C=C\C/C=C\C/C=C\C/C=C\CCCC(=O)N1CCC(CNC(=O)c2cccnc2)CC1 [Compound I-31, N-((1-((5Z,8Z,11Z,14Z,17Z)-icosa-5,8,11,14,17-pentaenoyl)piperidin-4-yl)methyl)nicotinamide]	
< 25 µM	CC/C=C\C/C=C\C/C=C\C/C=C\C/C=C\CCCC(=O)N[C@H]1CC[C@H](CNC(=O)c2cccnc2)CC1 [Compound I-41, N-(((1R,4R)-4-((5Z,8Z,11Z,14Z,17Z)-icosa-5,8,11,14,17-pentaenamido)cyclohexyl)methyl)nicotinamide]	
> 50 µM	CC/C=C\C/C=C\C/C=C\C/C=C\C/C=C\CCCC(=O)N[C@H]1CC[C@H](NC(=O)c2cccnc2)CC1 [Compound I-42, N-((1R,4R)-4-((5Z,8Z,11Z,14Z,17Z)-icosa-5,8,11,14,17-pentaenamido)cyclohexyl)nicotinamide]	
< 25 µM	CC/C=C\C/C=C\C/C=C\C/C=C\C/C=C\CCCC(=O)N(C)CC1CCN(C(=O)c2cccnc2)CC1 [Compound I-48, (5Z,8Z,11Z,14Z,17Z)—N-methyl-N-((1-nicotinoylpiperidin-4-yl)methyl)icosa-5,8,11,14,17-pentaenamide]	
> 50 µM	CC/C=C\C/C=C\C/C=C\C/C=C\C/C=C\CCCC(=O)NCCNC(=O)c1ccccc1NC(=O)c1cccnc1 [Compound I-59, N-(2-((2-((5Z,8Z,11Z,14Z,17Z)-icosa-5,8,11,14,17-pentaenamido)ethyl)carbamoyl)phenyl)nicotinamide]	
> 50 µM	CC/C=C\C/C=C\C/C=C\C/C=C\C/C=C\CCCC(=O)N1CCN(C(=O)c2ccccc2NC(=O)c2cccnc2)CC1 [Compound I-60, N-(2-(4-((5Z,8Z,11Z,14Z,17Z)-icosa-5,8,11,14,17-pentaenoyl)piperazine-1-carbonyl)phenyl)nicotinamide]	
25 to 50 µM	CC/C=C\C/C=C\C/C=C\C/C=C\C/C=C\CCCC(=O)NCCNC(=O)c1ccc(CCN2CCOCC2)nc1 [Compound V-2, N-(2-((5Z,8Z,11Z,14Z,17Z)-icosa-5,8,11,14,17-pentaenamido)ethyl)-6-(2-morpholinoethyl)nicotinamide]	
< 25 µM	CC/C=C\C/C=C\C/C=C\C/C=C\C/C=C\CCCC(=O)NCCNC(=O)c1ccc(CCN2CCCC2)nc1 [Compound V-8, N-(2-((5Z,8Z,11Z,14Z,17Z)-icosa-5,8,11,14,17-pentaenamido)ethyl)-6-(2-(pyrrolidin-1-yl)ethyl)nicotinamide]	
< 25 µM	CC/C=C\C/C=C\C/C=C\C/C=C\C/C=C\CCCC(=O)NCCNC(=O)C(C)(C)Oc1ccc(Cl)cc1 [II-33, (5Z,8Z,11Z,14Z,17Z)—N-(2-(2-(4-chlorophenoxy)-2-methylpropanamido)ethyl)icosa-5,8,11,14,17-pentaenamide]	
< 25 µM	CC/C=C\C/C=C\C/C=C\C/C=C\C/C=C\C/C=C\CCC(=O)NCCNC(=O)C(C)(C)CCCOc1cc(C)ccc1C [II-34, (4Z,7Z,10Z,13 Z,16Z,19Z)—N-(2-(5-(2,5-dimethylphenoxy)-2,2-dimethylpentanamido)ethyl)docosa-4,7,10,13,16,19-hexaenamide]	
< 25 µM	CC/C=C\C/C=C\C/C=C\C/C=C\C/C=C\C/C=C\CCC(=O)NCCNC(=O)C(C)(C)Oc1ccc(C(=O)c2ccc(Cl)cc2)cc1 [II-36, (4Z,7Z,10Z,13Z,16Z,19Z)—N-(2-(2-(4-(4-chlorobenzoyl)phenoxy)-2-methylpropanamido)ethyl)docosa-4,7,10,13,16,19-hexaenamide]	
< 25 µM	CC/C=C\C/C=C\C/C=C\C/C=C\C/C=C\CCCC(=O)NCCNC(=O)C(C)(C)Oc1ccc(CCNC(=O)c2ccc(Cl)cc2)cc1 [II-39, 4-chloro-N-(4-((1-((2-((5Z,8Z,11Z,14Z,17Z)-icosa-5,8,11,14,17-pentaenamido)ethyl)amino)-2-methyl-1-oxopropan-2-yl)oxy)phenethyl)benzamide]	
> 50 µM	CC/C=C\C/C=C\C/C=C\C/C=C\C/C=C\C/C=C\CCC(=O)NCCOCCOCCOC [III-1, (4Z,7Z,10Z,13Z,16Z,19Z)—N-(2-(2-(2-methoxyethoxy)ethoxy)ethyl)docosa-4,7,10,13,16,19-hexaenamide]	
< 25 µM	CC/C=C\C/C=C\C/C=C\C/C=C\C/C=C\C/C=C\CCC(=O)NCCOCCOCCOCCOC [III-3, (4Z,7Z,10Z,13Z,16Z,19Z)—N-(2,5,8,11-tetraoxamidecan-13-yl)docosa-4,7,10,13,16,19-hexaenamide]	
25 to 50 µM	CC/C=C\C/C=C\C/C=C\C/C=C\C/C=C\CCCC(=O)NCCNC(=O)c1cncc(-c2ccccc2)c1 [VI-2, N-(2-((5Z,8Z,11Z,14Z,17Z)-icosa-5,8,11,14,17-pentaenamido)ethyl)-5-phenylnicotinamide]	

SMILES	IC50	lowering of PCSK9 (at 25 and 50 μM, FIG. 1)
CC/C=C\C/C=C\C/C=C\C/C=C\C/C=C\CCCC(=O)NC[C@@H]1CCCN1C(=O)c1cccnc1 [Compound I-32, (5Z,8Z,11Z,14Z,17Z)—N—(((S)-1-nicotinoylpyrrolidin-2-yl)methyl)icosa-5,8,11,14,17-pentaenamide]	< 25 µM	
CC/C=C\C/C=C\C/C=C\C/C=C\C/C=C\CCCC(=O)NC[C@H]1CCCN1C(=O)c1cccnc1 [Compound I-33, (5Z,8Z,11Z,14Z,17Z)—N—(((R)-1-nicotinoylpyrrolidin-2-yl)methyl)icosa-5,8,11,14,17-pentaenamide]	< 25 µM	
CC/C=C\C/C=C\C/C=C\C/C=C\C/C=C\CCCC(=O)N1CCC[C@H]1CNC(=O)c1cccnc1 [Compound I-34, N—(((S)-1-((5Z,8Z,11Z,14Z,17Z)-icosa-5,8,11,14,17-pentaenoyl)pyrrolidin-2-yl)methyl)nicotinamide]	< 25 µM	
CC/C=C\C/C=C\C/C=C\C/C=C\C/C=C\CCCC(=O)N(C)[C@H]1CCN(C(=O)c2cccnc2)C1 [Compound I-49, (5Z,8Z,11Z,14Z,17Z)—N-methyl-N—((S)-1-nicotinoylpyrrolidin-3-yl)icosa-5,8,11,14,17-pentaenamide]	25 to 50 µM	
CC/C=C\C/C=C\C/C=C\C/C=C\C/C=C\CCCC(=O)N1CC[C@H](N(C)C(=O)c2cccnc2)C1 [Compound I-61, N—((S)-1-((5Z,8Z,11Z,14Z,17Z)-icosa-5,8,11,14,17-pentaenoyl)pyrrolidin-3-yl)-N-methylnicotinamide]	> 50 µM	
CC/C=C\C/C=C\C/C=C\C/C=C\C/C=C\CCCC(=O)Nc1nc(C)ncc1CNC(=O)c1cccnc1 [Compound I-64, N-((4-((5Z,8Z,11Z,14Z,17Z)-icosa-5,8,11,14,17-pentaenamido)-2-methylpyrimidin-5-yl)methyl)nicotinamide]	25 to 50 µM	
CC/C=C\C/C=C\C/C=C\C/C=C\C/C=C\CCCC(=O)NCCNC(=O)c1ccccc1 [II-1, N-(2-((5Z,8Z,11Z,14Z,17Z)-icosa-5,8,11,14,17-pentaenamido)ethyl)benzamide]	25 to 50 µM	significant lowering of PCSK9
CC/C=C\C/C=C\C/C=C\C/C=C\C/C=C\CCCC(=O)NCCNC(=O)c1ccc(=O)n(C)c1 [II-7, N-(2-((5Z,8Z,11Z,14Z,17Z)-icosa-5,8,11,14,17-pentaenamido)ethyl)-1-methyl-6-oxo-1,6-dihydropyridine-3-carboxamide]	> 50 µM	
CC/C=C\C/C=C\C/C=C\C/C=C\C/C=C\CCCC(=O)NCCNC(=O)c1ccncc1 [II-8, N-(2-((5Z,8Z,11Z,14Z,17Z)-icosa-5,8,11,14,17-pentaenamido)ethyl)isonicotinamide]	> 50 µM	
CC/C=C\C/C=C\C/C=C\C/C=C\C/C=C\CCCC(=O)NCCNC(=O)c1ccccn1 [II-9, N-(2-((5Z,8Z,11Z,14Z,17Z)-icosa-5,8,11,14,17-pentaenamido)ethyl)picolinamide]	25 to 50 µM	
CC/C=C\C/C=C\C/C=C\C/C=C\C/C=C\CCCC(=O)NCCNC(=O)c1ccncn1 [II-10, N-(2-((5Z,8Z,11Z,14Z,17Z)-icosa-5,8,11,14,17-pentaenamido)ethyl)pyrimidine-4-carboxamide]	> 50 µM	
CC/C=C\C/C=C\C/C=C\C/C=C\C/C=C\CCCC(=O)NCCNC(=O)c1cnccn1 [II-11, N-(2-((5Z,8Z,11Z,14Z,17Z)-icosa-5,8,11,14,17-pentaenamido)ethyl)pyrazine-2-carboxamide]	> 50 µM	
CC/C=C\C/C=C\C/C=C\C/C=C\C/C=C\CCCC(=O)NCCOCCOCCOC [III-2, (5Z,8Z,11Z,14Z,17Z)—N-(2-(2-(2-methoxyethoxy)ethoxy)ethyl)icosa-5,8,11,14,17-pentaenamide]	> 50 µM	
CC/C=C\C/C=C\C/C=C\C/C=C\C/C=C\CCCC(=O)NCCNC(=O)c1cnccc1O [VI-1, 4-hydroxy-N-(2-((5Z,8Z,11Z,14Z,17Z)-icosa-5,8,11,14,17-pentaenamido)ethyl)nicotinamide]	> 50 µM	
